The target of assay [1] is T1, Retinoid X receptor-α (RXRα) (Homo sapiens, UniProt P19793, R316E).
T1 sequence (P19793 198-462 R316E): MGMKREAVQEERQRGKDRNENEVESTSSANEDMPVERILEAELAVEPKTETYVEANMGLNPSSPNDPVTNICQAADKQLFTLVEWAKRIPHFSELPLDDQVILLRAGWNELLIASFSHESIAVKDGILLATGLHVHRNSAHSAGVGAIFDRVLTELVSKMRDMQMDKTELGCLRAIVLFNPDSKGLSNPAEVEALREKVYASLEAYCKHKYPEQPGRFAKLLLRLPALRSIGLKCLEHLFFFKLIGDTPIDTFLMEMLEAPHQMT
Nature of the assay: Gal4 luciferase reporter in CV-1 cells. The assay is classed as cell-based.

The target of assay [2] is T2, Retinoid X receptor-α (RXRα) (Homo sapiens, UniProt P19793).
T2 sequence (P19793 198-462): T1 sequence (P19793 198-462 R316E) with E119R
The assay can be described thus: Gal4-RXRα-LBD luciferase reporter in CV-1 cells. The class given is cell-based.

For assay [3], the target named is T3, Retinoid X receptor-α (RXRα) (Homo sapiens, UniProt P19793).
T3 sequence (P19793 223-462 limits assumed): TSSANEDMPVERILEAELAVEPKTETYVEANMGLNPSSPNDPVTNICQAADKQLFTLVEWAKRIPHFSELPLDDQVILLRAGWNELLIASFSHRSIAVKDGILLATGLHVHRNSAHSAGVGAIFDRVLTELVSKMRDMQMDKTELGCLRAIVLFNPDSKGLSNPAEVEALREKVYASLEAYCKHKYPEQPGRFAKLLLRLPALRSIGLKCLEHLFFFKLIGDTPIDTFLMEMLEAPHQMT
Nature of the assay: radioligand competition with [3H]-9-cis-RA. The class given is binding.

Assay [4] addresses T1, Retinoid X receptor-α (RXRα). The assay can be described thus: Gal4 luciferase reporter in CV-1 cells, antagonism of CD3254. The assay is classed as cell-based.

Where a chain is given by its changes, count along the chain named.

Turning to `Cc1cc2c(cc1-c1cc(/C=C/C(=O)O)ccc1O)C(C)(C)CCC2(C)C` [CD3254], in assay [1], the “Gal4 luciferase reporter in CV-1 cells (agonist)” value is “CD3254 could still activate the RXRα/R316E mutant”. In addition, the “Gal4-RXRα-LBD luciferase reporter in CV-1 cells (agonist)” value in assay [2] was “CD3254 strongly induced Gal4-RXRα/LBD activity, which was comparable to that induced by 9-cis-RA”.
In assay [3], `CC(C)=CCC/C(C)=C/Cc1c(O)c(O)cc2c(=O)c3c(O)c(CC=C(C)C)c(O)cc3oc12` [CF31, 1,3,6,7-tetrahydroxy-2-(3-methyl-2-butenyl)-5-(3,7-dimethyl-2,6-octadienyl)xanthone] yielded an IC50 of 9.6 µM. For the same compound, the “Gal4 luciferase reporter in CV-1 cells, antagonism of CD3254” value in assay [4] is “CD3254-induced reporter activity was potently inhibited by CF31 in a dose dependent manner (Fig. 2C)”.

The record behind these values is article PMC3537848 (Cancer research, 2012).
